In publication PMC9090415, “Discovery of small molecule inhibitors of Plasmodium falciparum apicoplast DNA polymerase” (Journal of Enzyme Inhibition and Medicinal Chemistry, 2022):

Target: P. falciparum apicoplast DNA polymerase (Pf-apPOL) (Plasmodium falciparum, UniProt Q8ILY1)
Test: Fluorescence-based high-throughput DNA polymerase assay (molecular beacon), primary screen and dose-response;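 for % inhibition Apol 40': compound concentration given in µM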
Assay type: biochemical
Details: for DNA Pol: 90 min, 10 µM
Description: The HT assay employs a molecular beacon, a stem-loop DNA template with a Cy3 dye and the Black Hole Quencher on the 3′ and 5′ ends of the DNA, respectively. Pf-apPOL concentration is based on a calculated absorptivity of ε280 = 56750 M^−1 cm^−1. Reactions were carried out at 25 °C, using Corning 3575 […] (well-volume, 20 µL). Assays testing for compound inhibition composed of reaction buffer (pH 7.9 in 50 mM potassium acetate, 20 mM Tris-acetate and 10 mM magnesium acetate), Pf-apPOL (20 nM), DNA substrate (20 nM), dNTPs (6 µM), and compound (10 µM in DMSO). The DNA and nucleotide substrates (dNTPs) were at concentrations of 20 nM and 6 µM, respectively, in the assay. Pf-apPOL was incubated in the reaction buffer with dNTPs and the compound of interest (10 µM, in the assay) at 25 °C for 10 min. The DNA substrate was then added and the reaction was allowed to proceed for 90 min at 25 °C.
Each assay plate contained 16 negative controls (no Pf-apPOL, DMSO present) and 16 positive controls (Pf-apPOL present, no DMSO). The fluorescence of each well was determined using a BioTek Synergy Neo fluorescence plate reader using excitation and emission wavelengths of 555 and 570 nm, respectively.
In the above, Min is the average of fluorescence emission of the negative controls (substrate only), Max the average fluorescence emission from the positive controls (enzyme + substrate), and Test the emission from the assays in the presence of compounds (enzyme + compound + substrates). […] […] The IC50 of each compound was determined using Equation (2): (2) IC50= Vmax/(1+ (I/IC50)^n)
In the above, n measures cooperativity, with n > 1 indicating synergistic binding of more than a single molecule of the compound.
To identify apPOL inhibitors we utilised our previously developed high-throughput DNA polymerase assay. The HT assay is based on a molecular beacon DNA template that forms a stem-loop with a Cy3 dye and the Black Hole Quencher on the 3′ and 5′ ends of the DNA, respectively. DNA polymerase activity extends an annealed primer through the stem region, displacing the fluorophore from the quencher, thereby increasing its fluorescence (Figure 1(A)). The assay accurately recapitulates the kinetic behaviour of apPOL, as measured through more conventional low-throughput gel-based assays. The Z′ factor for the assay described here was 0.9 across all plates (data not shown).
Figure 1. High-throughput screening. (A) The fluorescent-based DNA polymerase assay used to screen the compound libraries. The DNA template strand is a hairpin loop with a primer annealed to the loop. The 3’ end of the primer is 11 bases away from the 6 bp duplex. Strand displacement activity of the DNA polymerase separates the Cy3 dye from the Black hole quencher leading to an increase in fluorescent signal. (B) The high-throughput assay workflow. The DNA polymerase is incubated with […] compound for 10 min prior to addition of the hairpin substrate. The reaction is quenched at 3 different time points and the fluorescent signal is measured and % inhibition is determined using the provided equation.

[1] = 'DNA Pol' of the 186 hits list (screen value)
[2] = primary screen value, "DNA Pol"

Chain of P. falciparum apicoplast DNA polymerase (Pf-apPOL) (Q8ILY1 entry or part of it): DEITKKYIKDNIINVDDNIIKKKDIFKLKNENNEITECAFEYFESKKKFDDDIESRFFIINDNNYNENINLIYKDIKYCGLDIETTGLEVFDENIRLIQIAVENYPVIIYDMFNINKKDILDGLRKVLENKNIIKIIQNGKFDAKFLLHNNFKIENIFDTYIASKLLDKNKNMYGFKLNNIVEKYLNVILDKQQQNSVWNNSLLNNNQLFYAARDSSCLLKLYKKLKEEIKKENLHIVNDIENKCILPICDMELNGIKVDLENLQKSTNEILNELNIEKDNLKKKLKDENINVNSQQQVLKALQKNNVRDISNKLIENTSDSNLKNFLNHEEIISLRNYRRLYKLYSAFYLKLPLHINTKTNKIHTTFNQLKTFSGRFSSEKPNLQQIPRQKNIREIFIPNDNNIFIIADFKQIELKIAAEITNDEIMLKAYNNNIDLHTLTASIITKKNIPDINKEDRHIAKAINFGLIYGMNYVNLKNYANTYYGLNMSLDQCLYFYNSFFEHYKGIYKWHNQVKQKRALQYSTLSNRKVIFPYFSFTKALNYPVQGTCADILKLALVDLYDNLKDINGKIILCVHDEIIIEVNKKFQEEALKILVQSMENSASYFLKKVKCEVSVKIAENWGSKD

In the case of Cc1ccc(N2NC(=O)/C(=C\c3ccc(O)c([N+](=O)[O-])c3)C2=O)cc1Cl [KU0058427], the “DNA Pol” value [1] is reported as 41, the “% inhibition Apo pol 10'” value (DRC-1, conc 2.5) is reported as 22.1005% and the “% inhibition Apo pol 10'” value (DRC-1, conc 5) is reported as 22.1201%. The “% inhibition Apo pol 10'” value (DRC-1, conc 10) was 57.6403%, the “% inhibition Apo pol 10'” value (DRC-1, conc 20) was 74.2262% and the “% inhibition Apo pol 10'” value (DRC-1, conc 40) was 90.9483%. For the same molecule, the “% inhibition Apo pol 10'” value (DRC-1, conc 80) was 95.3494%, the “% inhibition Apol 90'” value (DRC-1, conc 2.5) was 11.8681% and the “% inhibition Apol 90'” value (DRC-1, conc 5) was 11.4719%. For the same molecule, the “% inhibition Apol 90'” value (DRC-1, conc 10) was 38.0061%, the “% inhibition Apol 90'” value (DRC-1, conc 20) was 55.0808% and the “% inhibition Apol 90'” value (DRC-1, conc 40) was 83.5201%. The “% inhibition Apol 90'” value (DRC-1, conc 80) was 94.8173%, the “% inhibition apPOL 180'” value (DRC-1, conc 2.5) was 4.9901% and the “% inhibition apPOL 180'” value (DRC-1, conc 5) was 2.877%. The “% inhibition apPOL 180'” value (DRC-1, conc 10) was 25.4818%, the “% inhibition apPOL 180'” value (DRC-1, conc 20) was 38.9214% and the “% inhibition apPOL 180'” value (DRC-1, conc 40) was 73.2638%. For the same molecule, the “% inhibition apPOL 180'” value (DRC-1, conc 80) was 93.9984%, the “% inhibition Apo pol 5'” value (DRC-2, conc 2.5) was 11% and the “% inhibition Apo pol 5'” value (DRC-2, conc 5) was 21%. For the same molecule, the “% inhibition Apo pol 5'” value (DRC-2, conc 10) was 35%, the “% inhibition Apo pol 5'” value (DRC-2, conc 20) was 44% and the “% inhibition Apo pol 5'” value (DRC-2, conc 40) was 54%. The “% inhibition Apo pol 5'” value (DRC-2, conc 80) was 56%, the “% inhibition Apo pol 5'” value (DRC-2, concentration 2.5) was 11% and the “% inhibition Apo pol 5'” value (DRC-2, concentration 20) was 44%. For the same molecule, the “% inhibition Apol 40'” value (DRC-2, conc 2.5) was 11%, the “% inhibition Apol 40'” value (DRC-2, conc 5) was 20% and the “% inhibition Apol 40'” value (DRC-2, conc 10) was 34%. For the same molecule, the “% inhibition Apol 40'” value (DRC-2, conc 20) was 46%, the “% inhibition Apol 40'” value (DRC-2, conc 40) was 64% and the “% inhibition Apol 40'” value (DRC-2, conc 80) was 74%. The “% inhibition Apol 40'” value (DRC-2, concentration 2.5) was 11%, the “% inhibition Apol 40'” value (DRC-2, concentration 5) was 20% and the “% inhibition ApPOL 90'” value (DRC-2, conc 2.5) was 9%. The “% inhibition ApPOL 90'” value (DRC-2, conc 5) was 19%, the “% inhibition ApPOL 90'” value (DRC-2, conc 10) was 28% and the “% inhibition ApPOL 90'” value (DRC-2, conc 20) was 44%. For the same molecule, the “% inhibition ApPOL 90'” value (DRC-2, conc 40) was 65%, the “% inhibition ApPOL 90'” value (DRC-2, conc 80) was 78% and the “% inhibition ApPOL 90'” value (DRC-2, concentration 2.5) was 9%. For the same molecule, the “% inhibition ApPOL 90'” value (DRC-2, concentration 20) was 44%, the “% inhibition apPOL 180'” value (DRC-2, conc 2.5) was 2.37% and the “% inhibition apPOL 180'” value (DRC-2, conc 5) was 9%. The “% inhibition apPOL 180'” value (DRC-2, conc 10) was 20%, the “% inhibition apPOL 180'” value (DRC-2, conc 20) was 33% and the “% inhibition apPOL 180'” value (DRC-2, conc 40) was 57%. For the same molecule, the “% inhibition apPOL 180'” value (DRC-2, conc 80) was 80%, the “% inhibition apPOL 180'” value (DRC-2, concentration 5) was 9% and the “% inhibition apPOL 180'” value (DRC-2, concentration 10) was 20%. The “DNA Pol” value [2] was 41.
With Cc1cccc(C2=N/C(=C\c3ccc([N+](=O)[O-])o3)C(=O)O2)c1 [KU0058960] the “DNA Pol” value [1] was 79, the “% inhibition Apo pol 10'” value (DRC-1, conc 2.5) was 31.9938% and the “% inhibition Apo pol 10'” value (DRC-1, conc 5) was 37.9558%. For the same molecule, the “% inhibition Apo pol 10'” value (DRC-1, conc 10) was 61.5267%, the “% inhibition Apo pol 10'” value (DRC-1, conc 20) was 80.2962% and the “% inhibition Apo pol 10'” value (DRC-1, conc 40) was 86.7912%. The “% inhibition Apo pol 10'” value (DRC-1, conc 80) was 87.9713%, the “% inhibition Apol 90'” value (DRC-1, conc 2.5) was 16.0415% and the “% inhibition Apol 90'” value (DRC-1, conc 5) was 19.2427%. The “% inhibition Apol 90'” value (DRC-1, conc 10) was 39.4275%, the “% inhibition Apol 90'” value (DRC-1, conc 20) was 66.6869% and the “% inhibition Apol 90'” value (DRC-1, conc 40) was 86.2407%. For the same molecule, the “% inhibition Apol 90'” value (DRC-1, conc 80) was 92.5412%, the “% inhibition apPOL 180'” value (DRC-1, conc 2.5) was 6.3408% and the “% inhibition apPOL 180'” value (DRC-1, conc 5) was 6.493%. The “% inhibition apPOL 180'” value (DRC-1, conc 10) was 24.2065%, the “% inhibition apPOL 180'” value (DRC-1, conc 20) was 52.0492% and the “% inhibition apPOL 180'” value (DRC-1, conc 40) was 83.7016%. The “% inhibition apPOL 180'” value (DRC-1, conc 80) was 94.2271%, the “% inhibition Apo pol 5'” value (DRC-2, conc 2.5) was 15% and the “% inhibition Apo pol 5'” value (DRC-2, conc 5) was 25%. The “% inhibition Apo pol 5'” value (DRC-2, conc 10) was 37%, the “% inhibition Apo pol 5'” value (DRC-2, conc 20) was 45% and the “% inhibition Apo pol 5'” value (DRC-2, conc 40) was 51%. The “% inhibition Apo pol 5'” value (DRC-2, conc 80) was 48%, the “% inhibition Apo pol 5'” value (DRC-2, concentration 10) was 37% and the “% inhibition Apol 40'” value (DRC-2, conc 2.5) was 12%. For the same molecule, the “% inhibition Apol 40'” value (DRC-2, conc 5) was 23%, the “% inhibition Apol 40'” value (DRC-2, conc 10) was 37% and the “% inhibition Apol 40'” value (DRC-2, conc 20) was 50%. For the same molecule, the “% inhibition Apol 40'” value (DRC-2, conc 40) was 64%, the “% inhibition Apol 40'” value (DRC-2, conc 80) was 69% and the “% inhibition Apol 40'” value (DRC-2, concentration 10) was 37%. The “% inhibition ApPOL 90'” value (DRC-2, conc 2.5) was 9%, the “% inhibition ApPOL 90'” value (DRC-2, conc 5) was 19% and the “% inhibition ApPOL 90'” value (DRC-2, conc 10) was 33%. The “% inhibition ApPOL 90'” value (DRC-2, conc 20) was 47%, the “% inhibition ApPOL 90'” value (DRC-2, conc 40) was 66% and the “% inhibition ApPOL 90'” value (DRC-2, conc 80) was 74%. For the same molecule, the “% inhibition apPOL 180'” value (DRC-2, conc 2.5) was 1.68%, the “% inhibition apPOL 180'” value (DRC-2, conc 5) was 7% and the “% inhibition apPOL 180'” value (DRC-2, conc 10) was 20%. For the same molecule, the “% inhibition apPOL 180'” value (DRC-2, conc 20) was 36%, the “% inhibition apPOL 180'” value (DRC-2, conc 40) was 63% and the “% inhibition apPOL 180'” value (DRC-2, conc 80) was 78%. For the same molecule, the “DNA Pol” value [2] was 79.
